Where a name gives a salt, the structure may show the parent alone. One block for each compound: values may come before it.
What was measured:
[1] = biological target: T1, Alpha-2C adrenergic receptor (Homo sapiens, UniProt P18825); assay: (§1) PDSP Secondary Binding target: ADRA2C - Compounds are tested at 10 uM concentration, plate are incubated at room temperature in the dark for 90 minutes. Reaction are stopped by vacuum filtration onto 0.3% polyethyleneimine soaked filter mats using Filtermate harvester. Scintillation cocktail is then melted onto microwave-dried filters on a hot plate and the radio activity is counted in Microbia counter.
T1 sequence (P18825 whole entry): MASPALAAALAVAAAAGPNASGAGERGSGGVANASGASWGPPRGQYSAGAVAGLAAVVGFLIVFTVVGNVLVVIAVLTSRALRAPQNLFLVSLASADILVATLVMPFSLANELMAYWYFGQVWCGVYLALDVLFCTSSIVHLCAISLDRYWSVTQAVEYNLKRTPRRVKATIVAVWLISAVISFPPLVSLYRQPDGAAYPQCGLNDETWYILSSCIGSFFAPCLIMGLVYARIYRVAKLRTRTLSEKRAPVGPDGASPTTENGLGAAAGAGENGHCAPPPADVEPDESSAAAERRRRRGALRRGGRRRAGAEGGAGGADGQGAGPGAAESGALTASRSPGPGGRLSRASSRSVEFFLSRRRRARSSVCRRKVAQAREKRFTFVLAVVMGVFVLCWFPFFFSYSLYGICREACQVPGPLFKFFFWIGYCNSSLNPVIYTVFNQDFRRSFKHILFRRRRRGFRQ

[2] = biological target: T2, Alpha-2B adrenergic receptor (Homo sapiens, UniProt P18089); assay: as §1, with “ADRA2B” for “ADRA2C”
T2 sequence (P18089 whole entry): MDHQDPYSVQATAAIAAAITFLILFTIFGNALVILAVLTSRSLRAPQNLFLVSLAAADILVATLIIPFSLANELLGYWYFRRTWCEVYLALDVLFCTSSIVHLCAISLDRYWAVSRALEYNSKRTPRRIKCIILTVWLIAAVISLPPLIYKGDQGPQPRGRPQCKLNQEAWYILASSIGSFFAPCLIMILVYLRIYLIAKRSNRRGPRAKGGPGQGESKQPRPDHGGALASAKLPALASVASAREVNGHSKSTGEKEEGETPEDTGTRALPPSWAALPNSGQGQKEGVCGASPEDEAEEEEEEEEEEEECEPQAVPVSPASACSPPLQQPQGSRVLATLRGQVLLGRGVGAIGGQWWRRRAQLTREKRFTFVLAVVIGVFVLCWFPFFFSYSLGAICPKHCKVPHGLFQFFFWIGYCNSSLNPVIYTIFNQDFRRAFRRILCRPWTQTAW

[3] = biological target: Sigma non-opioid intracellular receptor 1 (Homo sapiens, UniProt Q99720); assay: as §1, with “SIGMAR1” for “ADRA2C”
D(4) dopamine receptor = biological target: T3, D(4) dopamine receptor (Homo sapiens, UniProt P21917); assay: as §1, with “DRD4” for “ADRA2C”
T3 sequence (P21917 whole entry): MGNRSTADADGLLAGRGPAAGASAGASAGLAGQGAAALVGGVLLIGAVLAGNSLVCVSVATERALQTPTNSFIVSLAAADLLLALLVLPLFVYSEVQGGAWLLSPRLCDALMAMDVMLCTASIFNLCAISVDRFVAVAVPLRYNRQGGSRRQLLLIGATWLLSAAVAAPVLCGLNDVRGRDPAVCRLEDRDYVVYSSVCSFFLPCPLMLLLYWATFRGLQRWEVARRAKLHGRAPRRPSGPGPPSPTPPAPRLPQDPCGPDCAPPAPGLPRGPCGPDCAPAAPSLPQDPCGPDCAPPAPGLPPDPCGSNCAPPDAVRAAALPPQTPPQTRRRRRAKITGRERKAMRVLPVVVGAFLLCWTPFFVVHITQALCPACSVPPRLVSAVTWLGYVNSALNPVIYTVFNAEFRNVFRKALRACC

Translocator protein = Translocator protein (Homo sapiens, UniProt P30536); assay: as §1, with “TSPO” for “ADRA2C”
[4] = biological target: Sodium-dependent dopamine transporter (Homo sapiens, UniProt Q01959); assay: as §1, with “SLC6A3” for “ADRA2C”
Mu-type opioid receptor = Mu-type opioid receptor (Homo sapiens, UniProt P35372); assay: as §1, with “OPRM1” for “ADRA2C”
[5] = biological target: Kappa-type opioid receptor (Homo sapiens, UniProt P41145); assay: as §1, with “OPRK1” for “ADRA2C”
[6] = biological target: T4, Alpha-1B adrenergic receptor (Homo sapiens, UniProt P35368); assay: as §1, with “ADRA1B” for “ADRA2C”
T4 sequence (P35368 whole entry): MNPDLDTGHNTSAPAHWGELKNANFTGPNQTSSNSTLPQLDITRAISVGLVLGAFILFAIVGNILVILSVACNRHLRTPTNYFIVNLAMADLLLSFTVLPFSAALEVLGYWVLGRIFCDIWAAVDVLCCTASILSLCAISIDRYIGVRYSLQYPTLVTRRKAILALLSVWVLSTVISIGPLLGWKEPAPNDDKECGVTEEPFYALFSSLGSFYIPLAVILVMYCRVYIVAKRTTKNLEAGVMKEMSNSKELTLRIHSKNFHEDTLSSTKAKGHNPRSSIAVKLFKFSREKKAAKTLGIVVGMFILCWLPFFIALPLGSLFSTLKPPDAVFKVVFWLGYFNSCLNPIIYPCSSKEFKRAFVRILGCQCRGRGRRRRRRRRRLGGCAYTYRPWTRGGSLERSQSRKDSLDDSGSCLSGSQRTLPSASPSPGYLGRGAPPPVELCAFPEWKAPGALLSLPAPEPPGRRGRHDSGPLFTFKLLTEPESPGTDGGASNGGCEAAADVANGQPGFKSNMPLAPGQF

[7] = biological target: Sigma intracellular receptor 2 (Homo sapiens, UniProt Q5BJF2); assay: as §1, with “TMEM97” for “ADRA2C”
[8] = biological target: 5-hydroxytryptamine receptor 1D (Homo sapiens, UniProt P28221); assay: as §1, with “HTR1D” for “ADRA2C”
[9] = biological target: 5-hydroxytryptamine receptor 2B (Homo sapiens, UniProt P41595); assay: as §1, with “HTR2B” for “ADRA2C”
[10] = biological target: T5, Muscarinic acetylcholine receptor M5 (Homo sapiens, UniProt P08912); assay: as §1, with “CHRM5” for “ADRA2C”
T5 sequence (P08912 whole entry): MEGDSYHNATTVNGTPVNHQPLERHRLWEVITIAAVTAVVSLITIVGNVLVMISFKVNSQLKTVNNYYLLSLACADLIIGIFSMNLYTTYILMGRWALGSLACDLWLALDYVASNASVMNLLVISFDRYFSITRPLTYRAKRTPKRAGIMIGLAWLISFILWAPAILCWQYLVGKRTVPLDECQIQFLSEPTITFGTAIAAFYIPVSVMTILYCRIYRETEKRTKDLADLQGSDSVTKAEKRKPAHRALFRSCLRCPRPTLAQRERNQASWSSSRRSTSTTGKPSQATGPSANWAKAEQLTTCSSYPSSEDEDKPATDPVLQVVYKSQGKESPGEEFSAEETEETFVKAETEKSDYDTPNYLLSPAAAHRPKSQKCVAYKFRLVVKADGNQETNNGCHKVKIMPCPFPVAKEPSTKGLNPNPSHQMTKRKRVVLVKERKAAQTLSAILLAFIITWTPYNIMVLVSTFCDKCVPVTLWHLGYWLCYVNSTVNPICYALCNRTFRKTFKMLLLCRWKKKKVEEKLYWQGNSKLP

Histamine H1 receptor = Histamine H1 receptor (Homo sapiens, UniProt P35367); assay: as §1, with “HRH1” for “ADRA2C”
D(3) dopamine receptor = D(3) dopamine receptor (Homo sapiens, UniProt P35462); assay: as §1, with “DRD3” for “ADRA2C”
[11] = biological target: 5-hydroxytryptamine receptor 2A (Homo sapiens, UniProt P28223); assay: as §1, with “HTR2A” for “ADRA2C”
[12] = biological target: 5-hydroxytryptamine receptor 7 (Homo sapiens, UniProt P34969); assay: as §1, with “HTR7” for “ADRA2C”
[13] = biological target: 5-hydroxytryptamine receptor 5A (Homo sapiens, UniProt P47898); assay: as §1, with “HTR5A” for “ADRA2C”
[14] = biological target: T6, 5-hydroxytryptamine receptor 2C (Homo sapiens, UniProt P28335); assay: as §1, with “HTR2C” for “ADRA2C”
T6 sequence (P28335 whole entry): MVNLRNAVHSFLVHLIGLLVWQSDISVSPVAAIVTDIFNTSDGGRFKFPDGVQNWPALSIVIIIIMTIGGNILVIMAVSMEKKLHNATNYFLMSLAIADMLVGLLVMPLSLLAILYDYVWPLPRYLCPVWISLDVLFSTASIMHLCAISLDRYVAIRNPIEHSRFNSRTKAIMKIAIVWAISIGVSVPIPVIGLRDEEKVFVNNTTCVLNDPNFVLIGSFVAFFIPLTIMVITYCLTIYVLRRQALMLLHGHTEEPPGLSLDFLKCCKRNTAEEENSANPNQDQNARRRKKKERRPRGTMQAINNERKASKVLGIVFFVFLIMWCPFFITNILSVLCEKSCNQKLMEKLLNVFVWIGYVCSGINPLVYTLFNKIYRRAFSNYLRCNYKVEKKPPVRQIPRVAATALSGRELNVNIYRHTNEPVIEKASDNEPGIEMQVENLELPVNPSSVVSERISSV

Chain of D(3) dopamine receptor (P35462 whole entry): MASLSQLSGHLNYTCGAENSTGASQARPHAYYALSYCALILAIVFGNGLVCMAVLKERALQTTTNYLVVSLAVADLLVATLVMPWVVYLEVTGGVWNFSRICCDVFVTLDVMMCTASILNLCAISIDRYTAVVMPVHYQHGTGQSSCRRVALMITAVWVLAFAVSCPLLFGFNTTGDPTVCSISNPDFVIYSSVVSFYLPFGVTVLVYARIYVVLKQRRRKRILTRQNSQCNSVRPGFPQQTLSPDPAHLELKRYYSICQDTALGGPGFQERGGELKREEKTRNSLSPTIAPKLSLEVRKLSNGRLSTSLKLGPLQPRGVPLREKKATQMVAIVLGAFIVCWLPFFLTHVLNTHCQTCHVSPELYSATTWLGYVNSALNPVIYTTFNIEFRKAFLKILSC
Chain of Sodium-dependent dopamine transporter (Q01959 whole entry): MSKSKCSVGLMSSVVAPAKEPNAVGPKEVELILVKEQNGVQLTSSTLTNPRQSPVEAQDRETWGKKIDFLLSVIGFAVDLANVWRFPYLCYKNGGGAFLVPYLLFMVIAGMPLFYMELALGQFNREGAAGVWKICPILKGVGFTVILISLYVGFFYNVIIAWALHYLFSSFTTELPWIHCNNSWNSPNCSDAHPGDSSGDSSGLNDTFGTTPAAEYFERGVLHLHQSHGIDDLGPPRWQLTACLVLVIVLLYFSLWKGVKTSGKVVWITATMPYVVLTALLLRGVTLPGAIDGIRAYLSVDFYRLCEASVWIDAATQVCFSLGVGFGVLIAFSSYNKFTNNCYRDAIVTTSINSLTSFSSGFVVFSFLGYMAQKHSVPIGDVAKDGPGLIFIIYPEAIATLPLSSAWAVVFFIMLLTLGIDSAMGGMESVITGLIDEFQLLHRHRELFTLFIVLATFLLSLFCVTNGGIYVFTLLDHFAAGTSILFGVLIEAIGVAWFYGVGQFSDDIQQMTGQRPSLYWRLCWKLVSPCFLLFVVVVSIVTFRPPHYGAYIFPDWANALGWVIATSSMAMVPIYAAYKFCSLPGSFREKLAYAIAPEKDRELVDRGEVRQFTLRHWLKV
Chain of Histamine H1 receptor (P35367 whole entry): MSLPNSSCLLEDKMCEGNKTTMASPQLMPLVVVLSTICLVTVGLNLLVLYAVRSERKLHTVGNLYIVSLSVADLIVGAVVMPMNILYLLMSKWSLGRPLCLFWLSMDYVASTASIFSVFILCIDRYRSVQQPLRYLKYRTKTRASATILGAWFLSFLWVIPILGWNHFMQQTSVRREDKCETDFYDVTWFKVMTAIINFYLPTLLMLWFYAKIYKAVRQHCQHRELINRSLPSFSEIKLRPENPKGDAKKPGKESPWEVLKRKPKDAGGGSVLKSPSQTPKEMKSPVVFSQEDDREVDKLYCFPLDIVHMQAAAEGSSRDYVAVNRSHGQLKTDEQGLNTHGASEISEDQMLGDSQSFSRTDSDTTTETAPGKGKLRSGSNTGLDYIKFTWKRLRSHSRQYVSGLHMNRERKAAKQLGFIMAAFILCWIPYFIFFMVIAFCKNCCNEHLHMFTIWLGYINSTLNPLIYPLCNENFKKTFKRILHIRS
Chain of 5-hydroxytryptamine receptor 2A (P28223 whole entry): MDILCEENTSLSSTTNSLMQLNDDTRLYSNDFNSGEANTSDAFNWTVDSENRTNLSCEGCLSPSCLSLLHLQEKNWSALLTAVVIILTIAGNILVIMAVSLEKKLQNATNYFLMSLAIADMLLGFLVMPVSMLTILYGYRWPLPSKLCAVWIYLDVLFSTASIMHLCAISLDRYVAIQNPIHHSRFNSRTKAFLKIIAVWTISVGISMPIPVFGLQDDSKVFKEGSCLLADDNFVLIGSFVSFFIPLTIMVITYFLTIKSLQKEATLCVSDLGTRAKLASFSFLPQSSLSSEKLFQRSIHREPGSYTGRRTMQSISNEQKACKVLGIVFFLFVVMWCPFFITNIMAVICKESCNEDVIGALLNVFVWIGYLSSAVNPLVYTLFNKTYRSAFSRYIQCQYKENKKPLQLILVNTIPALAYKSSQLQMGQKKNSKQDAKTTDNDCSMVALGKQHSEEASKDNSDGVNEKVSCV
Chain of Sigma intracellular receptor 2 (Q5BJF2 whole entry): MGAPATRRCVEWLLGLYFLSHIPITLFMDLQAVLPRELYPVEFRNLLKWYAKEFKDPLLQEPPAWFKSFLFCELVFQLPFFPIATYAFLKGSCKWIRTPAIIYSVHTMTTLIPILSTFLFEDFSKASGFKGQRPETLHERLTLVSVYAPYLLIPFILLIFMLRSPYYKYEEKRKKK
Chain of Kappa-type opioid receptor (P41145 whole entry): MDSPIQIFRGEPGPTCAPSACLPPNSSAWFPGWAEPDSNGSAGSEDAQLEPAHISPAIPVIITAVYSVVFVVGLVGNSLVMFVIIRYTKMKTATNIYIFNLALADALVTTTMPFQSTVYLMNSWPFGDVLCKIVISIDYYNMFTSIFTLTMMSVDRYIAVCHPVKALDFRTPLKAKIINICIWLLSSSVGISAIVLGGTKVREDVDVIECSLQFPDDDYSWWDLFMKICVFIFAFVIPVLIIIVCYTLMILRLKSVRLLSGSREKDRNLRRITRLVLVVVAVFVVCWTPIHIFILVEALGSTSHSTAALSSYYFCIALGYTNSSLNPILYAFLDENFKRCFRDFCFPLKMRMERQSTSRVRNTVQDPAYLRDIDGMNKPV
Chain of Sigma non-opioid intracellular receptor 1 (Q99720 whole entry): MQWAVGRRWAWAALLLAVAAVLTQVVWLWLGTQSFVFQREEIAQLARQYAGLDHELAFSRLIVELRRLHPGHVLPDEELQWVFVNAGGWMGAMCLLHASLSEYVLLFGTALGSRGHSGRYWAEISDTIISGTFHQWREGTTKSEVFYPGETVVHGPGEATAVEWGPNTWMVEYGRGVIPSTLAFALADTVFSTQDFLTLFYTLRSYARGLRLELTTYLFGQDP
Chain of Mu-type opioid receptor (P35372 whole entry): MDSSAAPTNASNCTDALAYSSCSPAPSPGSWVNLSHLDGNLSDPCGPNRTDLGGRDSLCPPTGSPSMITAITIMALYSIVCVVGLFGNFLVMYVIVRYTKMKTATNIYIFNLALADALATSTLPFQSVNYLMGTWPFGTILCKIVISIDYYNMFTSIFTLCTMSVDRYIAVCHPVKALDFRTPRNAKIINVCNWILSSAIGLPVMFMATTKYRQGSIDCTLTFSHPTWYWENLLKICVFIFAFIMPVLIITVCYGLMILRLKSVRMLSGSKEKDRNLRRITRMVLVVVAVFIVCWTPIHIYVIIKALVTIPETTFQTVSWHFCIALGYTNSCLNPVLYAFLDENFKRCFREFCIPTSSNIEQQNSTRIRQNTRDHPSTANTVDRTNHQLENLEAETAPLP
Chain of Translocator protein (P30536 whole entry): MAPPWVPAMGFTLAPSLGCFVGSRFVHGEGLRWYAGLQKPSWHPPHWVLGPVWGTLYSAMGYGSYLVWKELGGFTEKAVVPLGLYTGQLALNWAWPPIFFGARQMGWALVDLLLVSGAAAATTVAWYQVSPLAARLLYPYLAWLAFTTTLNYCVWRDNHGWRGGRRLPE
Chain of 5-hydroxytryptamine receptor 2B (P41595 whole entry): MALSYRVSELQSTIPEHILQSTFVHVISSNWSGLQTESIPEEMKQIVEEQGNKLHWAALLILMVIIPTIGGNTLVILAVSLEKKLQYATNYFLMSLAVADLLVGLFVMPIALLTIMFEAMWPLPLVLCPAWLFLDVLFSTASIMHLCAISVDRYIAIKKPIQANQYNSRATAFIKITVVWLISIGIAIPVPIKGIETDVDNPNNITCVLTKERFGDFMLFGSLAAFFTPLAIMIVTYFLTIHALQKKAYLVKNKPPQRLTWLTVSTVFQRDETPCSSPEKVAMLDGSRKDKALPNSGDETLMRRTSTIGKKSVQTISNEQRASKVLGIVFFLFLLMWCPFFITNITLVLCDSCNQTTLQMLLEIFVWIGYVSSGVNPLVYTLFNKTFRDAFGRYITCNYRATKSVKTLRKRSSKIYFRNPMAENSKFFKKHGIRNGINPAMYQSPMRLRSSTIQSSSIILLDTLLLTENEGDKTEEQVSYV
Chain of 5-hydroxytryptamine receptor 7 (P34969 whole entry): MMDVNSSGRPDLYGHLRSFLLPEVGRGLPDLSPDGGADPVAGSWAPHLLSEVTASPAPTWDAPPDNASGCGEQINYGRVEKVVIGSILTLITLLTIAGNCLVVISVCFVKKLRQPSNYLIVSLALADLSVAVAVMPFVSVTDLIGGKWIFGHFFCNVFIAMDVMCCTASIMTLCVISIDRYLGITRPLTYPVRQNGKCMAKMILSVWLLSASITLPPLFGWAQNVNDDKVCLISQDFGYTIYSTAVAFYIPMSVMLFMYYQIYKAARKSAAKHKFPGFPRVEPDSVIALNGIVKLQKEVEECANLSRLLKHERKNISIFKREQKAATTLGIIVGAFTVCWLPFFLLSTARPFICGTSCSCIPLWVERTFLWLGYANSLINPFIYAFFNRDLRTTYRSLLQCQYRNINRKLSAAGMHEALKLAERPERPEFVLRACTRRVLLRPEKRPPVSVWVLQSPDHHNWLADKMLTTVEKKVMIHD
Chain of 5-hydroxytryptamine receptor 1D (P28221 whole entry): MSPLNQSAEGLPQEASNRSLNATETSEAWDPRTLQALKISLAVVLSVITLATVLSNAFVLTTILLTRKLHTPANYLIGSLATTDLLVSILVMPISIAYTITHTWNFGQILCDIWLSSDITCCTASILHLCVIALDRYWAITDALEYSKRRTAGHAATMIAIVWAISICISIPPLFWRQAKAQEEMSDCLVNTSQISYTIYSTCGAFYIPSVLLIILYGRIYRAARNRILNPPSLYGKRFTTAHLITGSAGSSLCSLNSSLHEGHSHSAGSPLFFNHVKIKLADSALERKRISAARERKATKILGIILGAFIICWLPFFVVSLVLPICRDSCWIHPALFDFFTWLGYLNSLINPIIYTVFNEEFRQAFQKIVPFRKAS

Compound: NC[C@H](O)c1ccc(O)c(O)c1
Ki [1]: 386 nM
Ki [2]: 235 nM

Compound: CCCCN(CCCC)C(=O)CN1C[C@@H](c2ccc3c(c2)OCO3)[C@H](C(=O)O)[C@H]1c1ccc(OC)cc1
Ki [3]: 2810 nM
Ki (D(4) dopamine receptor): 1910 nM
Ki (Translocator protein): 184 nM

Compound: C[C@H](NC[C@H](O)CP(=O)(O)CC1CCCCC1)c1ccc(Cl)c(Cl)c1
Ki [4]: 520 nM
Ki (Mu-type opioid receptor): 1.28 µM
Ki [5]: 1110 nM

Compound: CN(C)C(=O)C(CCN1CCC(O)(c2ccc(Cl)cc2)CC1)(c1ccccc1)c1ccccc1 [LOPERAMIDE HYDROCHLORIDE]
Ki [6]: 3.69 µM
Ki [3]: 169 nM
Ki (D(4) dopamine receptor): 1460 nM
Ki [4]: 1410 nM
Ki [7]: 36.7 nM
Ki [8]: 2600 nM
Ki [9]: 362 nM

Compound: CSc1ccc(C(=O)N[C@@H]2CCCC[C@@H]2NC(=O)CNC(=O)c2cc(C(F)(F)F)ccc2NC(=O)NC(C)C)cc1
Ki (Histamine H1 receptor): 1610 nM
Ki (D(3) dopamine receptor): 1190 nM

Compound: C/C(=N\NC(=O)[C@@H]1C(=O)NC[C@H]1c1ccccc1)c1cccc(Br)c1
Ki (Mu-type opioid receptor): > 10 µM
Ki [11]: 3.88 µM
Ki (Histamine H1 receptor): 1980 nM

Compound: O=C(Cc1ccc(Cl)c(Cl)c1)N1CCCC[C@H]1CN1CCCC1
Ki [3]: 11.7 nM
Ki (D(4) dopamine receptor): 2030 nM
Ki [4]: 4860 nM
Ki [7]: 37 nM
Ki [5]: 0.591 nM

Compound: Cc1ccccc1N1CCN(S(=O)(=O)C[C@]23CC[C@H](C[C@@H]2NC(=O)[C@@H](N)CCS(C)(=O)=O)C3(C)C)CC1
Ki [3]: 70.1 nM
Ki [7]: 309 nM
Ki [5]: 4.03 nM

More lines, now with the values ahead:

Ki [10]: > 10 µM
Ki (Histamine H1 receptor): 5550 nM
Compound: Cc1nnn(-c2ccc(-c3ccc(C4(C(=O)O)CC4)cc3)cc2)c1NC(=O)O[C@H](C)c1ccccc1

Ki (D(4) dopamine receptor): > 10000 nM
Ki (Mu-type opioid receptor): > 10 µM
Ki [10]: 5.23 µM
Compound: O=C1N/C(=N/c2ccccc2F)S/C1=C\c1ccc(C(=O)O)cc1

Ki [3]: 488 nM
Ki [11]: 4.61 µM
Ki (Histamine H1 receptor): > 10000 nM
Compound: O=C(O)C1CN(Cc2ccc(OCc3ccc(Cl)c(Cl)c3)cc2)C1

Ki (D(4) dopamine receptor): 545 nM
Ki (Mu-type opioid receptor): 6.27 µM
Ki (D(3) dopamine receptor): 270 nM
Compound: CCc1cc2c(c(CC)n1)CCC(=O)N2Cc1ccc(-c2ccccc2-c2nnn[nH]2)cc1

Ki [5]: 2380 nM
Compound: COc1cccc(-c2c(C)n(Cc3c(F)cccc3C(F)(F)F)c(=O)n(C[C@H](NCCCC(=O)O)c3ccccc3)c2=O)c1F [ELAGOLIX SODIUM]

Ki [1]: 1720 nM
Ki [12]: 803 nM
Ki [3]: 365 nM
Ki [13]: 2110 nM
Ki [9]: 647 nM
Ki [5]: 998 nM
Ki [11]: 2.12 µM
Ki [14]: 2220 nM
Ki (Translocator protein): 1660 nM
Ki (D(3) dopamine receptor): 1020 nM
Compound: CNc1nc(NCc2ccc(NS(C)(=O)=O)cc2Cl)cc(-c2ccccn2)n1

Ki [3]: 2260 nM
Ki (D(4) dopamine receptor): 199 nM
Ki [5]: 2120 nM
Compound: c1ccc(N2CCN(Cc3nc4ccccc4[nH]3)CC2)nc1
